Laboratory results as given in publication PMC6934184, “Selective DNA-PKcs inhibition extends the therapeutic index of localized radiotherapy and chemotherapy” (The Journal of Clinical Investigation, 2019).

Biological target: T1, STK22D (TSSK1) (Homo sapiens, UniProt Q9BXA7)
T1 construct: purchased Thermo Fisher Scientific (Life Technologies) SelectScreen
Experiment: SelectScreen Z'LYTE
Format: biochemical
In short: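 Percent values come from Thermo SelectScreen profiling of NU5455, combining activity and binding assays. CSF1R was run in Z'LYTE format at Km app ATP, and CAMK1 in Adapta format with ATP listed at 10.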

T1 sequence (Q9BXA7 whole entry): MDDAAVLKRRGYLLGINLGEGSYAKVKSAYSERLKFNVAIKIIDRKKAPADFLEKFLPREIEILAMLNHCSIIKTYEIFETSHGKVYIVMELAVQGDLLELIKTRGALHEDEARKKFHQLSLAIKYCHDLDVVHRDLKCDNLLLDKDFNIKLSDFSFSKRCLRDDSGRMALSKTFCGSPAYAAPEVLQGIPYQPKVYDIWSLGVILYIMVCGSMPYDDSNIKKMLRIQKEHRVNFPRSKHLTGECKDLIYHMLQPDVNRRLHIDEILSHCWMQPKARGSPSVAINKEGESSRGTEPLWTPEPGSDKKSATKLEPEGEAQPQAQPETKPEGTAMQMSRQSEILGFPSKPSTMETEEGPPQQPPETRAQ

CN(C(=O)CN1CCOCC1)c1ccc2sc3c(-c4cccc5c(=O)cc(N6CC7CCC(C6)O7)oc45)cccc3c2c1 [NU5455]
inhibition at 1 µM: 4.2%
